Source: US9050346B2, “Bromodomain inhibitors” (AbbVie Inc., priority 2013, dated 2015)
Marks after values point to notes of the source that are not given here.

Experiments:
[1] = test system: breast cancer cell line MX-1; experiment: MX-1 cell line proliferation assay (3-day, Cell Titer Glo); type: cell-based; settings: Homo sapiens, MX1, MX-1 cells, 72 h, top concentration 3 μM, read-out: Cellular proliferation: EC50
How it was run: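 MX-1 cells, 5000/well in RPMI 1640 with 10% FBS, adhered overnight, then treated 3 days with compound at final 3 to 0.0001 μM (3-fold steps). Cell Titer Glo luminescence normalized to DMSO-treated cells; EC50 from sigmoidal fit.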

BRD4 (BDI_K57-E168) = target: T1, BRD4 (BDI_K57-E168) (Homo sapiens, UniProt O60885); experiment: TR-FRET bromodomain binding assay, BRD4 first bromodomain; settings: His-tagged BD1, 100 nM Alexa647 probe; Ki calculated from IC50; dilution protocol A-G
T1 construct: BD1: amino acids K57-E168; made in house
How it was run: (§1)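 His-tagged BRD4 BD1 (K57-E168) or BD2 (8 nM) with Eu-anti-His antibody and Alexa647-labeled BET-inhibitor probe (100 nM for BDI, 30 nM for BDII), pH 6.0 phosphate buffer, 2% DMSO, 1 h at room temperature. TR-FRET (Ex 340, Em 495/520); IC50 by 4-parameter fit, converted to Ki using probe Kd and concentration.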

BRD4 (BDII_E352-M457) = target: T2, BRD4 (BDII_E352-M457) (Homo sapiens, UniProt O60885); experiment: TR-FRET bromodomain binding assay, BRD4 second bromodomain
T2 construct: made in house
How it was run: as §1

[2] = test system: LPS induced IL-6 production; experiment: LPS (lipopolysaccharide) induced IL-6 production mouse assay; type: in vivo; settings: 3 mg/kg oral, 1 h before LPS 2.5 mg/kg i.p.; serum IL-6 2 h after LPS; SCID female mice; all p<0.05
Method: Compounds of the Examples listed in Table 2 were assayed for their ability to inhibit LPS (lipopolysaccharide) induced IL-6 (Interleukin-6) production in mice. Fox Chase SCID® female mice (Charles Rivers Labs, 5 per group) received an intraperitoneal challenge of lipopolysaccharide (2.5 mg/kg, L2630 E. coli 0111:B4) one hour after oral administration of compounds. Mice were euthanized 2 hours after lipopolysaccharide injection, blood was removed by cardiac puncture, and then the serum harvested from the blood samples was frozen at −80° C. On the day of the assay the serum samples were brought to room temperature and then diluted 1:20 in phosphate-buffered saline containing 2% bovine serum albumin. Interleukin-6 measurements were performed using a cytokine assay from Meso Scale Discovery (Gaithersburg, Md.) for mouse serum analysis according to the manufacturer's protocol and read on a SECTOR Imager 6000 (Meso Scale Discovery, Gaithersburg, Md.) instrument. Statistical analysis was performed using Prism software (version 5.0) incorporating Dunnett's one way ANOVA. The IL-6 mean and standard deviation of the group of vehicle treated animals were compared with the IL-6 mean and standard deviation of the group treated with drug. A p value<0.05 means that there is less than a 5% probability that the mean values in the two groups are equal.
Xenograft Tumor Growth Inhibition Assay

[3] = test system: OPM-2 human multiple myeloma xenograft tumors; experiment: OPM-2 xenograft tumor growth inhibition assay; type: in vivo, mice; settings: QDx21; for % TGI: SCID-beige mice; for % TGD (tumor growth delay): endpoint 1000 mm^3
Method: The effect of compounds of the examples to inhibit the growth of OPM-2 xenograft tumors implanted in mice was evaluated. A suspension of cancer cells (5×10^6 per 0.1 mL) prepared in RPMI culture medium (Invitrogen, Carlsbad, Calif.) was diluted 1:1 with a solution of Matrigel™ (BD Biosciences, Franklin Lakes, N.J.) and inoculated subcutaneously into the right hind flank of female SCID-beige (Charles River Labs) mice. Randomization into treatment and vehicle control groups (10/group) occurred when the mean tumor volume reached approximately 250 mm^3. Compounds were formulated in 2.5% DMSO, 10% EtOH, 27.5% PEG 400, 60% Phosol 53 MCT. Administration of compound or vehicle was initiated on the day following randomization and continued for 21 days. Tumors were measured twice a week throughout the treatment period using a pair of calipers and tumor volumes were calculated according to the formula V=L×W^2/2 (V: volume, mm^3; L: length, mm. W: width, mm) Tumor growth inhibition was calculated based on the mean tumor volume measured on the first day that the mean volume of the vehicle group exceeded 2000 mm^3 according to the formula % TGI=100-mean tumor volume of treatment group/mean tumor volume of control group x 100.

| Compound | EC50 [1] | Ki (BRD4 (BDI_K57-E168)) | Ki (BRD4 (BDII_E352-M457)) | % inhibition of LPS induced IL-6 production at 3 mg/kg [2] | % removed from study (morbidity or weight loss in excess of 20%) ([3]; 45 mg/kg PO) | % TGI ([3]; 45 mg/kg PO) | % TGD (tumor growth delay) ([3]; 45 mg/kg PO) | % removed from study (morbidity or weight loss in excess of 20%) ([3]; 150 mg/kg PO) | % TGI ([3]; 150 mg/kg PO) | % TGD (tumor growth delay) ([3]; 150 mg/kg PO) |
| --- | --- | --- | --- | --- | --- | --- | --- | --- | --- | --- |
| Cc1[nH]c(-c2cc(N)ccc2Oc2ccccc2)c2c1C(=O)NCC2 [Example 94, 1-(5-amino-2-phenoxyphenyl)-3-methyl-2,5,6,7-tetrahydro-4H-pyrrolo[3,4-c]pyridin-4-one] | 91.9 nM | 17.2 nM | 32.4 nM | 27% |  |  |  |  |  |  |
| CCCNC(=O)c1cc2c(-c3cc(N)ccc3Oc3ccc(F)cc3F)[nH]c(C)c2c(=O)[nH]1 [Example 43, 1-[5-amino-2-(2,4-difluorophenoxy)phenyl]-3-methyl-4-oxo-N-propyl-4,5-dihydro-2H-pyrrolo[3,4-c]pyridine-6-carboxamide] | 150 nM | 15.9 nM | 25.4 nM | 39% |  |  |  |  |  |  |
| Cc1[nH]c(-c2cc(C#N)ccc2Oc2ccc(F)cc2F)c2cn[nH]c(=O)c12 [Example 82, 4-(2,4-difluorophenoxy)-3-(7-methyl-1-oxo-2,6-dihydro-1H-pyrrolo[3,4-d]pyridazin-5-yl)benzonitrile] | 167 nM | 36.7 nM | 357 nM | 44% |  |  |  |  |  |  |
| COCCNC(=O)c1cc2c(-c3ccccc3Oc3ccccc3)[nH]c(C)c2c(=O)[nH]1 [Example 29, N-(2-methoxyethyl)-3-methyl-4-oxo-1-(2-phenoxyphenyl)-4,5-dihydro-2H-pyrrolo[3,4-c]pyridine-6-carboxamide] | 114 nM | 10.6 nM | 46.7 nM | 40% |  |  |  |  |  |  |
| CCOC(=O)c1cc2c(-c3ccc(-c4cc(C)n[nH]4)cc3)[nH]c(C)c2c(=O)[nH]1 [Example 8, ethyl 3-methyl-1-[4-(3-methyl-1H-pyrazol-5-yl)phenyl]-4-oxo-4,5-dihydro-2H-pyrrolo[3,4-c]pyridine-6-carboxylate] | 737 nM | 95.6 nM | 615 nM |  |  |  |  |  |  |  |
| Cc1[nH]c(-c2ccccc2Oc2ccccc2)c2cc(-c3nc(-c4cnccn4)no3)[nH]c(=O)c12 [Example 65, 3-methyl-1-(2-phenoxyphenyl)-6-(3-(pyrazin-2-yl)-1,2,4-oxadiazol-5-yl)-2H-pyrrolo[3,4-c]pyridin-4(5H)-one] | 71.1 nM | 7.57 nM | 28.5 nM |  |  |  |  |  |  |  |
| Cc1[nH]c(-c2ccccc2Oc2ccccc2)c2cc(C(=O)Nc3ccc(CN4CCN(C)CC4)cc3)[nH]c(=O)c12 [Example 17, 3-methyl-N-(4-((4-methylpiperazin-1-yl)methyl)phenyl)-4-oxo-1-(2-phenoxyphenyl)-4,5-dihydro-2H-pyrrolo[3,4-c]pyridine-6-carboxamide] | 177 nM | 27.7 nM | 2.29 nM |  |  |  |  |  |  |  |
| Cc1[nH]c(-c2cc(F)ccc2OCC2CC2)c2cc(C(N)=O)[nH]c(=O)c12 [Example 70, 1-[2-(cyclopropylmethoxy)-5-fluorophenyl]-3-methyl-4-oxo-4,5-dihydro-2H-pyrrolo[3,4-c]pyridine-6-carboxamide] | > 3000 nM | 82.7 nM | 356 nM |  |  |  |  |  |  |  |
| Cc1[nH]c(-c2cc(N)ccc2Oc2ccc(F)cc2F)c2c1C(=O)NC(C)C2 (centres unmarked) [Example 101, 1-[5-amino-2-(2,4-difluorophenoxy)phenyl]-3,6-dimethyl-2,5,6,7-tetrahydro-4H-pyrrolo[3,4-c]pyridin-4-one] | 45.8 nM | 8.42 nM | 11.5 nM |  |  |  |  |  |  |  |
| Cc1[nH]c(-c2cc(S(C)(=O)=O)ccc2Oc2ccc(F)cc2F)c2c1C(=O)NCC2 [Example 98, 1-[2-(2,4-difluorophenoxy)-5-(methylsulfonyl)phenyl]-3-methyl-2,5,6,7-tetrahydro-4H-pyrrolo[3,4-c]pyridin-4-one] | 721 nM | 34.9 nM | 148 nM |  | 0% | 45** % | 53** % | 20% | 68*** % | 123** % |
| COC(=O)C1Cc2c(-c3ccccc3Oc3ccccc3)[nH]c(C)c2C(=O)N1 (centres unmarked) [Example 97, methyl 3-methyl-4-oxo-1-(2-phenoxyphenyl)-4,5,6,7-tetrahydro-2H-pyrrolo[3,4-c]pyridine-6-carboxylate] | > 3000 nM | 24.3 nM | 157 nM |  |  |  |  |  |  |  |
| Cc1[nH]c(-c2ccccc2Oc2ccccc2)c2cc(C(N)=O)[nH]c(=O)c12 [Example 11, 3-methyl-4-oxo-1-(2-phenoxyphenyl)-4,5-dihydro-2H-pyrrolo[3,4-c]pyridine-6-carboxamide] | 31.7 nM | 4.31 nM | 11.9 nM |  |  |  |  |  |  |  |
| CNC(=O)c1cc2c(-c3cc(C(F)(F)F)ccc3Oc3ccc(F)cc3F)[nH]c(C)c2c(=O)[nH]1 [Example 34, 1-[2-(2,4-difluorophenoxy)-5-(trifluoromethyl)phenyl]-N,3-dimethyl-4-oxo-4,5-dihydro-2H-pyrrolo[3,4-c]pyridine-6-carboxamide] | 355 nM | 77 nM | 160 nM |  |  |  |  |  |  |  |
| Cc1noc(-c2cc3c(-c4ccccc4Oc4ccccc4)[nH]c(C)c3c(=O)[nH]2)n1 [Example 61, 3-methyl-6-(3-methyl-1,2,4-oxadiazol-5-yl)-1-(2-phenoxyphenyl)-2H-pyrrolo[3,4-c]pyridin-4(5H)-one] | 159 nM | 10 nM | 138 nM |  |  |  |  |  |  |  |
| Cc1[nH]c(-c2ccccc2Oc2ccccc2)c2cc(C(=O)NN(C)C)[nH]c(=O)c12 [Example 53, N′,N′,3-trimethyl-4-oxo-1-(2-phenoxyphenyl)-4,5-dihydro-2H-pyrrolo[3,4-c]pyridine-6-carbohydrazide] | 162 nM | 8.25 nM | 72.1 nM |  |  |  |  |  |  |  |
| COC(=O)c1cc2c(-c3cc(N)ccc3Oc3ccccc3)[nH]c(C)c2c(=O)[nH]1 [Example 2, methyl 1-(5-amino-2-phenoxyphenyl)-3-methyl-4-oxo-4,5-dihydro-2H-pyrrolo[3,4-c]pyridine-6-carboxylate] | 24 nM | 1.47 nM | 21.5 nM | 25% |  |  |  |  |  |  |
